Our source for the inhibition values is EP4467141A1, “PYRAZOLO-QUINOLINES AS SELECTIVE INHIBITORS OF GENOTOXIC STRESS-INDUCED IKK/NF- KB PATHWAYS FOR CANCER THERAPY” (Max-Delbrück-Centrum für Molekulare Medizin in der …, priority 2023, dated 2024).

As a reminder, the inhibition is the relative decrease from the control value, in per cent.

Where two headings read alike, the source gives them in different places.

Assay in all cases: Kinase panel study
What all share (format): biochemical
Common to all, as to settings: for inhibition at 1 µM: 1000nM

The target in one test is T1, ALK (Homo sapiens, UniProt Q9UM73).
T1 construct: purchased Thermo Fisher Scientific
An outline of the steps: (§1)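 Inhibition was measured in an outsourced in vitro kinase panel using the ZLyte or Adapta format under the provider's standard procedures. Values are percent inhibition at 10 µM or 1 µM compound, and IC50s were also obtained.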

In another test the target is T2, GSG2 (Haspin) (Homo sapiens, UniProt Q8TF76).
T2 construct: purchased Thermo Fisher Scientific
T2 sequence (Q8TF76 1-798): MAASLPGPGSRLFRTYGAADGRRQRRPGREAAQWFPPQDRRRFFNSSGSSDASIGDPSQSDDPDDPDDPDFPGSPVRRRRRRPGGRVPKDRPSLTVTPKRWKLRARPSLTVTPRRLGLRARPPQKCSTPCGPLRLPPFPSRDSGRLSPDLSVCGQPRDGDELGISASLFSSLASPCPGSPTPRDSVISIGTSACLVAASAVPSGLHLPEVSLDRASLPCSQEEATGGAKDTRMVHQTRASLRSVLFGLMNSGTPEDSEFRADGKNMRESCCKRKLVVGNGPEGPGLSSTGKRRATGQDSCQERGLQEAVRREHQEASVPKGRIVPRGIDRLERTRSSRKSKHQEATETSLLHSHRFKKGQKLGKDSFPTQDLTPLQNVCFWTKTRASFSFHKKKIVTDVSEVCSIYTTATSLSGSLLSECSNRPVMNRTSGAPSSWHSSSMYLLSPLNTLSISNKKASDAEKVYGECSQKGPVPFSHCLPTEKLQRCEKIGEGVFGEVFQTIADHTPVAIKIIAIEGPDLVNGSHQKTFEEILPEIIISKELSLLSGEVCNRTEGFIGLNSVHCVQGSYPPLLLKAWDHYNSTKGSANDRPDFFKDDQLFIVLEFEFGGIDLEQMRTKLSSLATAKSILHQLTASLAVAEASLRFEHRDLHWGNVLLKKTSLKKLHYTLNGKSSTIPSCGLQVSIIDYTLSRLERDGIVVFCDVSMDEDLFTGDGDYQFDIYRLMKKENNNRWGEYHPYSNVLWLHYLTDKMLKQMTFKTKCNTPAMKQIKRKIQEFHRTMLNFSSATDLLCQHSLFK
In short, it runs like this:
as §1

The target of a further test is T3, LRRK2 (Homo sapiens, UniProt Q5S007).
T3 construct: purchased Thermo Fisher Scientific
In short, it runs like this:
as §1

Test [1] concerns the target T4, PIK3CA/PIK3R3 (p11 0 alpha/p55 gamma) (Homo sapiens, UniProt P42336).
T4 construct: purchased Thermo Fisher Scientific
An outline of the steps: as §1

Setting [2] is: read-out: Percentage of inhibition.
[3] abbreviates: 10000nM, read-out: Percentage of inhibition.
Where [4] appears, read: ALK, compound at 10µM, read-out: % of Inhibition.
Setting [5] is: GSG2 (Haspin), compound at 10µM, read-out: % of Inhibition.
[6] abbreviates: LRRK2, compound at 10µM, read-out: % of Inhibition.
Setting [7] is: PIK3CA/PIK3R3, compound at 10µM, read-out: % of Inhibition.

T4 sequence (P42336 whole entry): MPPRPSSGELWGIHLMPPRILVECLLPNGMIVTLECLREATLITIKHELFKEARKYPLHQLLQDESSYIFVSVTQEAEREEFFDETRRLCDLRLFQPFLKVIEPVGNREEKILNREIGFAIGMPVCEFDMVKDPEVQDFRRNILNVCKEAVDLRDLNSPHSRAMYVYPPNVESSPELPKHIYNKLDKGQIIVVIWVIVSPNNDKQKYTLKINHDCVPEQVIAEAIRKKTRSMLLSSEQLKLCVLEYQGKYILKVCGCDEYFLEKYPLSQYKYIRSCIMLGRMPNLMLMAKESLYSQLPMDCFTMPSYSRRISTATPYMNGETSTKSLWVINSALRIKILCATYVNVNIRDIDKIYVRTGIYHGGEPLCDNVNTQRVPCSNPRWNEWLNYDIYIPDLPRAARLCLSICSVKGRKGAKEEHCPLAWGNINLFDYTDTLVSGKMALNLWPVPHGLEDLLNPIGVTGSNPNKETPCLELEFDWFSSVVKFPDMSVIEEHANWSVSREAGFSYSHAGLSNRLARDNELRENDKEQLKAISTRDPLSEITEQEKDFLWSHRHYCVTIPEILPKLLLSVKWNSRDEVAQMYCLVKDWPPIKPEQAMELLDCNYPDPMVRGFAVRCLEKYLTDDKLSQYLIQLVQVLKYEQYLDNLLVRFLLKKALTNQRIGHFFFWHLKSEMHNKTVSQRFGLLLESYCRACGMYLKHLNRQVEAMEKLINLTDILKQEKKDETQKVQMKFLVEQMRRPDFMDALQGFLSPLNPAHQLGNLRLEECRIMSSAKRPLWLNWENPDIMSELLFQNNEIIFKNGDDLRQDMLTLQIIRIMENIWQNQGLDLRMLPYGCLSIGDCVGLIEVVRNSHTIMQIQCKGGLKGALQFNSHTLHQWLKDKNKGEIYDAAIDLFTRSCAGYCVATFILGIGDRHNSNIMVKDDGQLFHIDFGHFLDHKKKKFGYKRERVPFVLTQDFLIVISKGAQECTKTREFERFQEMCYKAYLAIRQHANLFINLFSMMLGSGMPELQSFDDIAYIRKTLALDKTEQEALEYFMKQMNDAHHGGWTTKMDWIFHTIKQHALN
T1 sequence (Q9UM73 19-1620): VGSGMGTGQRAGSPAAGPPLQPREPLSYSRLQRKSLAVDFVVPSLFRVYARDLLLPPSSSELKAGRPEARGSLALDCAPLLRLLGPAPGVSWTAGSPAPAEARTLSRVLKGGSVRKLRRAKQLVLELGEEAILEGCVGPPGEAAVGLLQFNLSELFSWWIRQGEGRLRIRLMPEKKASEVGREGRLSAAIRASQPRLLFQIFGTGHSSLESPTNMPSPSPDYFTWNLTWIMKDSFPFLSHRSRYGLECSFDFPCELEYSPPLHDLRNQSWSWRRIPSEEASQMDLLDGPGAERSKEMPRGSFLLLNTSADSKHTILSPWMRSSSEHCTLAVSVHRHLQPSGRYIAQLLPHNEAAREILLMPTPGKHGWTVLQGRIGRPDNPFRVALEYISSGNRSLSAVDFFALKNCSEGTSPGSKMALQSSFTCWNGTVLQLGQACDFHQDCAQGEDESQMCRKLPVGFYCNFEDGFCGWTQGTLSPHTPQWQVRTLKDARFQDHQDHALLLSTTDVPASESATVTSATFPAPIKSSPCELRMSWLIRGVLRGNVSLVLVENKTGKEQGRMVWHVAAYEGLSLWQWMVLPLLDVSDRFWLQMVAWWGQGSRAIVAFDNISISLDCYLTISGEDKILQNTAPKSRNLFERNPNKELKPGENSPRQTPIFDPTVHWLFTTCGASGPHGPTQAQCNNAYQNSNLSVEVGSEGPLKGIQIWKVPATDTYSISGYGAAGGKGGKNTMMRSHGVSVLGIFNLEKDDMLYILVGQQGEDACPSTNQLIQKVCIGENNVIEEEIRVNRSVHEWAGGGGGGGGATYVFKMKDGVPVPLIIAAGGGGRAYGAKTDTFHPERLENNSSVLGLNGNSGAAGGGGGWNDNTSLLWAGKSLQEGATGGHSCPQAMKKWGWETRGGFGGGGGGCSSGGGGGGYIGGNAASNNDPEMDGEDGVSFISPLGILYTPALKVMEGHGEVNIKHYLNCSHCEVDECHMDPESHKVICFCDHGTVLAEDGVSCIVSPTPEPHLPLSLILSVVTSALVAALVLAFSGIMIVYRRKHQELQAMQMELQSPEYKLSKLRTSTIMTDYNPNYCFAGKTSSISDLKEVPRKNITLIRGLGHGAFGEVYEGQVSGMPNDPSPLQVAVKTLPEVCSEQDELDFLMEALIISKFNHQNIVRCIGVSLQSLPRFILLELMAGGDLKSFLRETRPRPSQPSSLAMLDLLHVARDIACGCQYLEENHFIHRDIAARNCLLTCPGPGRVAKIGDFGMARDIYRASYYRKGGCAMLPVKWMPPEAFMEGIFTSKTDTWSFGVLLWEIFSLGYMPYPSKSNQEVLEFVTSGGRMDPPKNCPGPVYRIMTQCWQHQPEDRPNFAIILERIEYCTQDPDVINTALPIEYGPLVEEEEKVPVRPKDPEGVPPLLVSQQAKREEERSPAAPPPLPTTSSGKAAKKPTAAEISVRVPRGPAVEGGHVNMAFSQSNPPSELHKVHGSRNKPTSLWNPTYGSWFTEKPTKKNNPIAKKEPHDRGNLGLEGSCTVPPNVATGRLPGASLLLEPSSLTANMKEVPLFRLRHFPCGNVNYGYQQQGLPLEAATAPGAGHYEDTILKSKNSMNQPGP
T3 sequence (Q5S007 970-2527 limits assumed): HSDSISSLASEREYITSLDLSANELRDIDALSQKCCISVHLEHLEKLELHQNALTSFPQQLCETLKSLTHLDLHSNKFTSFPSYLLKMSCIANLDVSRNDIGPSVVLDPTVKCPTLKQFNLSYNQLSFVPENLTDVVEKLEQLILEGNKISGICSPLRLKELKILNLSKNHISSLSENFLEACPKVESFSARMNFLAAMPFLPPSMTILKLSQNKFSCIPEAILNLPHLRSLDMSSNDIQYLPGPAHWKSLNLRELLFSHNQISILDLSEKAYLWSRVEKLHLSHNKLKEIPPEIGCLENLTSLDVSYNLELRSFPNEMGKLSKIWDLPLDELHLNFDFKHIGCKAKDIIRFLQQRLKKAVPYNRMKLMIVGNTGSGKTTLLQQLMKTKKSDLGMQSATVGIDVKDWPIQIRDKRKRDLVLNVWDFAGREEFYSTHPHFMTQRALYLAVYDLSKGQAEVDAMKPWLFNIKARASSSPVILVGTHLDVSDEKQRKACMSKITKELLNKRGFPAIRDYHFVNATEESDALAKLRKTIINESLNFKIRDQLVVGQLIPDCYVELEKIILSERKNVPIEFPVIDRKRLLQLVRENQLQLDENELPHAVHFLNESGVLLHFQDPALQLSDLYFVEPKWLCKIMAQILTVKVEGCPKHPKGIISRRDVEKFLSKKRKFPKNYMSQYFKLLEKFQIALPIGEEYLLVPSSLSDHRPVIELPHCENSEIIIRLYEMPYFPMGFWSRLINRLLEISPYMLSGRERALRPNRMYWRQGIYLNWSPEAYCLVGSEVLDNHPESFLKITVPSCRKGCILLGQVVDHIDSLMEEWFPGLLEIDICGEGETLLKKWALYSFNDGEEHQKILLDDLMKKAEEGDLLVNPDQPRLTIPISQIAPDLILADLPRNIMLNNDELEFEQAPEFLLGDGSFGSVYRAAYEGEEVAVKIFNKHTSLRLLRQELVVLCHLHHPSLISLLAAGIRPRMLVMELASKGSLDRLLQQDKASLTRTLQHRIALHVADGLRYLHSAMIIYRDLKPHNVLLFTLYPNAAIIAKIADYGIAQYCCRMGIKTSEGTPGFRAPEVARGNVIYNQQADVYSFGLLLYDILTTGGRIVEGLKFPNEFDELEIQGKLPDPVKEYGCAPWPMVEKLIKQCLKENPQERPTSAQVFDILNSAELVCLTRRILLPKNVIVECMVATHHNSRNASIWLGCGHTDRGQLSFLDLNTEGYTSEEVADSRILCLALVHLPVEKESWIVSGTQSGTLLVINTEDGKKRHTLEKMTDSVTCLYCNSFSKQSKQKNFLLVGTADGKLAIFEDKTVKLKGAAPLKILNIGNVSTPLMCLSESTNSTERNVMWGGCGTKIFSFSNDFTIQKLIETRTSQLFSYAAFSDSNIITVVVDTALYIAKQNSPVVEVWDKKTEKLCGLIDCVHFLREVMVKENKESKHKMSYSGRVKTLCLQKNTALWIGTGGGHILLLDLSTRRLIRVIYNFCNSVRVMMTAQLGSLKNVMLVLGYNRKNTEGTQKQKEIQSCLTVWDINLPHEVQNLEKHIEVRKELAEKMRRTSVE

For the molecule `COc1ccc2c(c1OC)c(=O)n1c3ccc(O)cc3c3ccnc2c31` [MW01, 5-Hydroxy-10,11-dimethoxy-9H-benzo[c]indolo[3,2,1-ij][1,5]naphthyridin-9-one], the inhibition at 1 µM came out at 18% on ALK (setting [2]), 77% on GSG2 (Haspin) (setting [2]), 83% at LRRK2 (setting [2]) and 92% in test [1] (setting [2]). In addition, the inhibition at 10 µM turned out to be 40% on ALK (setting [3]), 83% at GSG2 (Haspin) (setting [3]), 87% at LRRK2 (setting [3]) and 96% in test [1] (setting [3]).
For the molecule `COc1ccc2c(c1)c1ccnc3c4nc(OC)ccc4c(=O)n2c13` [MW01-E6, 5,15-dimethoxy-1,11,14-triazapentacyclo[10.7.1,0^2,7.0^8,^20.0^13,^18]icosa-2(7),3,5,8(20),9,11,13(18),14,16-nonaen-19-one], the inhibition at 10 µM at ALK (setting [4]) turned out to be 19%; on GSG2 (Haspin) (setting [5]), 29%; on LRRK2 (setting [6]) it was 64%; in test [1] (setting [7]), 10%.
Taken in the same sequence, the figures for `O=c1c2cc(O)ccc2c2nccc3c4cc(O)ccc4n1c32` [MW01-E10, 5,16-dihydroxy-1,11-diazapentacyclo[10.7.1.0^2,^7.0^8,^20.0^13,^18]icosa-2(7),3,5,8(20),9,11,13(18),14,16-nonaen-19-one] were 75%, 80%, 86% and 90%.
The corresponding values for `COc1ccc2c(c1)c1ccnc3c4ccnc(OC)c4c(=O)n2c13` [MW01-E14, 5,17-dimethoxy-1,11,16-triazapentacyclo[10.7.1.0^2,^7.0^8,^20.0^13,^18]icosa-2(7),3,5,8(20),9,11,13(18),14,16-nonaen-19-one] are 15%, 24%, -4% and 59%.
In the case of `O=c1c2cnccc2c2nccc3c4cc(O)ccc4n1c32` [MW01-E18, 5-hydroxy-1,11,16-triazapentacyclo[10.7.1.0^2,^7.0^8,^20.0^13,^18]icosa-2(7),3,5,8(20),9,11,13(18),14,16-nonaen-19-one], the inhibition at 10 µM came to 35% at ALK (setting [4]), 88% on GSG2 (Haspin) (setting [5]), 75% on LRRK2 (setting [6]) and 94% in test [1] (setting [7]).
For the molecule `COc1ccc2cc3c(N)nn(C(=O)c4cccc(N(C)C)c4)c3nc2c1` [MW05, (3-Amino-7-methoxypyrazolo[3,4-b]quinolin-1-yl)-[3-(dimethylamino)phenyl]methanone], the inhibition at 1 µM on ALK (setting [2]) is 0%; at GSG2 (Haspin) (setting [2]), 4%; on LRRK2 (setting [2]) it was -3%; in test [1] (setting [2]) it was 16%. The inhibition at 10 µM at ALK (setting [3]) was -2%; at GSG2 (Haspin) (setting [3]) it was 20%; at LRRK2 (setting [3]), 5%; in test [1] (setting [3]), 63%.
With `COc1ccc2nc3c(cc2c1)c(N)nn3C(=O)c1cccc(N(C)C)c1` [MW05-E2, 1-[3-(dimethylamino)benzoyl]-6-methoxy-1H-pyrazolo[3,4-b]quinolin-3-amine], the inhibition at 10 µM is 24% on ALK (setting [4]), 36% on GSG2 (Haspin) (setting [5]), 8% at LRRK2 (setting [6]) and 8% in test [1] (setting [7]).
